Patent publication US8309068B2, “Isolated polypeptides and methods of improving muscle strength” (Myostin Therapeutics Pty Ltd., priority 2006, dated 2012)
Where no end group is shown, it is not given here.

Experiments:
[1] = tested on: skin burn in C56b1/6 mice; experiment: In vivo skin burn trial (hydroxyproline assay); details: 6 μg/g SC day 1, 3, 5, 7 and 10, vs control
Description: C56b1/6 mice at ˜12 months of age were anesthetized, the skin at the back of the neck was shaved, and a red-hot metal rod (1.5 mm wide, 7 mm long) was applied to the exposed skin of the mice for 5 sec. The mice were injected subcutaneously with either saline or 300 myostatin antagonist at 6 μg/g of body weight at day 1, 3, 5, 7 and 10 after injury. The mice were allowed to heal for 5, 7, 14, 21, 28, 35 and 46 days, after which they were culled and the skin frozen in liquid nitrogen for hydroxyproline analysis.
After a burn injury in skin a hydroxyproline assay was performed to determine the amount of collagen deposits on the wound area. Hydroxyproline is present in collagen, and gives it a stable helical conformation. Therefore, measuring the amount of hydroxyproline present in a given tissue will determine the amount of collagen present in the tissue.

[2] = tested on: C57B mice injected with Dexamethasone; experiment: In vivo cachexia trial (Dexamethasone-induced)
Description: A study of chronic cachexia was designed whereby C57B mice, 4 weeks of age, were injected with the glucocorticoid drug Dexamethasone daily at a concentration of 1 mg/kg body weight. Three treatment groups were designed: 5 mice receiving daily injections of saline, 5 mice receiving daily injections of Dexamethasone and 5 mice receiving daily injections of Dexamethasone plus 300 antagonist at a concentration of 6μg/g body weight. Body weight of the mice was recorded daily and monitored closely for signs of cachexia. Food and water consumption was recorded to ensure that loss in body weight was not due to a loss of appetite or thirst. Body weights, fat-pad weights, and MyoD and Pax7 expression were assessed.

[3] = tested on: TA muscle burn in C56b1/6 mice; experiment: In vivo muscle burn trial
Description: C56b1/6 mice at ˜12 months of age were anesthetized and a red-hot metal rod (1.5 mm wide, 7 mm long) was applied to TA muscle for 5 sec. The mice were injected subcutaneously with saline or 300 myostatin antagonists at 6 μg/g of body weight at day 1, 3, 5, 7 and 10 after injury. The mice were allowed to heal for 5, 7, 14, 21, 28, 35 and 46 days, after which they were culled and the muscle processed for histology.
Histological muscle samples were covered in OCT and frozen in isopentane cooled in liquid nitrogen. The sections were cut in a cryostat at 10 μm thickness and stained with H&E and Van Gieson. Regeneration markers such as total number of centrally formed nuclei (CFN) and number of fibres with CNF were analysed for each day following the different treatments, and the values plotted.

[4] = tested on: C2C12 myoblasts; experiment: C2C12 myoblast proliferation assay (methylene blue endpoint); format: cell-based, murine
Description: A polypeptide of the invention, or a fragment, variant or derivative thereof has the biological function of antagonising myostatin activity. To determine whether a polypeptide of the invention, or a fragment, variant or derivative thereof, is able to antagonise myostatin activity, such activity can be tested by growing myoblasts in the presence or absence (control) of a candidate polypeptide of the invention. […]
The myoblast proliferation assay was carried out in uncoated 96-well microtitre plates. C2C12 cultures were seeded at 1000 cells/well. Following a 16-hour attachment period, test media containing either recombinant wild type myostatin or different myostatin antagonists were added and cells were incubated for a further 48 or 72 hour period. For competition assay, wild type myostatin was competed with different concentrations of myostatin antagonists prior to the addition into the media. After the incubation period, proliferation was assessed using methylene blue photometric endpoint assay as previously described (Thomas et al, 2000).

[5] = tested on: bone marrow derived macrophages; experiment: Migration of bone marrow derived macrophages from mice treated in vivo; details: 6 μg/g BW SC three times a week for six weeks; ZAMS 11%, 22% or 33%; vs saline
Source text: For chemotaxis analysis of macrophages bone marrow was isolated from saline treated (control) and myostatin antagonist 300 treated mice (as described in example 4, below), and plated at 5×10^6 cells/plate in DMEM 10% FBS plus 10% L929 conditioned medium (containing CSF-1) for 5 days to induce macrophage differentiation. The macrophages were then harvested and used in the assay. Three concentrations of DMEM containing Zymosan-activated mouse serum (ZAMS) was used, 33% (optimum chemo-attractant concentration), 22% and 11% (suboptimal chemo-attractant concentrations). Plain DMEM was used as negative control. On a 24-well plate, the bottom wells were filled with test or control media. Seventy-five thousand cells were added to the top wells containing polyethylene terephthalate (PET) 0.8 μm membranes. The plate was incubated for 4h at 37° C., 5% CO2. […] The membrane was then fixed, stained in Gill's hematoxylin and wet mounted on slides. Migrated cells were counted on four representative fields per membrane and the average number plotted.
An animal trial was conducted to assess the effects of myostatin antagonist 300 in improving muscle function. Sixteen month old mice were divided into two groups of ten. […] The functional improvement of sarcopenic muscle was assessed by measuring grip strength of mice at the end of trial. Grip strength was measured in Newtons.

[6] = tested on: Wild type mice; experiment: In vivo sarcopenia trial, 10 month administration in wild type mice
Description: Wild type mice (32 mice approx. 4-5 months of age) were injected subcutaneously fortnightly or monthly with 300 (6 μg/g body weight) or saline for a period of 10 month. Muscle strength was assessed using a grip strength apparatus (MK-380S, Muromachi; Tokyo, Japan) at the end of the trial. The maximum force exerted by a mouse while being pulled backward by the tail is recorded in Newtons. The mean of three grip tests for each mouse was calculated and the mean maximal force per group was determined.

[7] = tested on: primary myoblasts; experiment: Migration of primary myoblasts isolated from mice treated in vivo; details: 6 μg/g BW SC three times a week for six weeks; three chemo-attractant media; vs saline
Source text: In a second myoblast migration assay, primary myoblasts isolated form hind limb of saline treated (control) and myostatin antagonist 300 treated mice (as described in example 4 below). Three chemo-attractant media were used: DMEM containing 2% horse serum (HS) and 5% chicken embryo extract (CEE) (optimal chemo-attractant); DMEM containing only 5% CEE or DMEM containing only 2% HS (both suboptimal chemo-attractants). Plain DMEM was used as negative control. On a 24-well plate, the bottom wells were filled with test or control media. Seventy-five thousand cells were added to the top wells. The plate was incubated for 7h at 37° C., 5% CO2. […] The membrane was then fixed, stained in Gill's hematoxylin and wet mounted on slides. Migrated cells were counted on four representative fields per membrane and the average number plotted.
An animal trial was conducted to assess the effects of myostatin antagonist 300 in improving muscle function. Sixteen month old mice were divided into two groups of ten. While the control group received saline subcutaneous (SC) injections, the other group received myostatin antagonist 300 SC at 6 μg/gram of BW three times a week for six weeks. The functional improvement of sarcopenic muscle was assessed by measuring grip strength of mice at the end of trial. Grip strength was measured in Newtons.

Question: For “myostatin antagonist 300: recombinant peptide, amino acids 267-300 of bovine myostatin, with N terminal and C terminal tag (SEQ ID NO: 6) (DFGLDCDEHSTESRCCRYPLTVDFEAFGWDWIIA; cysteine pairing not given here; also: N- and C-terminal tags; listed as Homo sapiens)”, which “collagen on the wound area (hydroxyproline assay)” value [1] is on record?
Answer: Its value is “tendency towards lower level of collagen”.

Question: And the “Pax7 expression (Western blot)” value ([2]; Dexamethasone and 300, right gastrocnemius, p<0.01)?
Answer: The value was “significant up-regulation (rescue)”.

Question: What about the “MyoD expression (Western blot)” value ([2]; Dexamethasone and 300, right gastrocnemius, p<0.05) of the same substance?
Answer: Its value is “significant up-regulation (rescue)”.

Question: What about the “increase in left inguinal fat-pad weight” value ([2]; Dexamethasone plus 300) of the same substance?
Answer: Its value is 33.2%.

Question: And the “increase in left retroperitoneal fat-pad weight” value ([2]; Dexamethasone plus 300)?
Answer: Its value is 23.3%.

Question: And the “increase in right inguinal fat-pad weight” value ([2]; Dexamethasone plus 300)?
Answer: The value was 39%.

Question: And the “increase in right retroperitoneal fat-pad weight” value ([2]; Dexamethasone plus 300)?
Answer: The value was 39.2%.

Question: What about the “average body weight loss” value ([2]; co-treatment Dexamethasone 1 mg/kg and 300 6 μg/g daily) of the same substance?
Answer: The value was “smaller average body weight loss”.

Question: And the “H&E staining of the muscle” value ([3]; 21 days after burn injury)?
Answer: The value was “darker stained fibres, many with centrally formed nuclei”.

Question: And the “degree of fibrosis (van Gieson staining)” value ([3]; D21 after injury)?
Answer: The value was “higher degree of fibrosis in the control group”.

Question: And the “number of fibres with centrally formed nuclei (CFN)” value ([3]; after muscle burn, compared to saline)?
Answer: The value was “increased number”.

Question: What about the “percentage of damage muscle area, treatment vs control” value ([3]; from D28 onwards, data not shown) of the same substance?
Answer: The value was “no difference”.

Question: And the “numbers of centrally formed nuclei (CFN)” value ([3]; muscle burn, by D21, maintained up to day 46, vs control)?
Answer: The value was “significantly higher”.

Question: What about the “proliferation capacity of myoblasts compared to control” value ([4]; 1 μg/ml or 5 μg/ml over 48 or 72 hours) of the same substance?
Answer: Its value is “significantly enhanced”.

Question: What about the “concentration at which the highest myoblast proliferation rate was observed” value ([4]; 48 hour time point) of the same substance?
Answer: Its value is 5 µg/mL.

Question: What about the “migratory ability of macrophages isolated from treated mice” value [5] of the same substance?
Answer: The value was “significantly increased”.

Question: What about the “increase of muscle function, fortnightly compared with monthly application” value ([6]; 6 μg/g SC fortnightly for 10 month, data not shown) of the same substance?
Answer: The value was “equally effective”.

Question: And the “grip strength over saline control at the end of the trial” value ([6]; 6 μg/g SC monthly for 10 month, p<0.01)?
Answer: Its value is “significant increase”.

Question: What about the “migration rates of myoblasts isolated from treated mice” value [7] of the same substance?
Answer: Its value is “significantly increased migration rates”.
